IC50 data for 61 compounds are collected here from US8993585B2, “Cyclic amine substituted pyrimidinediamines as PKC inhibitors” (Rigel Pharmaceuticals, Inc., priority 2007, dated 2015).

The term IC50 denotes the concentration that inhibits the measured activity by half.

The assay relates to Human primary T cells. As to the kind of experiment: IL-2 ELISA, Human Primary T Cell, Anti-CD3+CD28+ (Example 3). It is filed as cell-based. To be noted: anti-CD3+CD28 stimulation. The procedure, abridged:
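IL-2 was read by ELISA after stimulation on wells pre-coated with 1 ug/ml αCD3 and 5 μg/ml αCD28. Before this, 100,000 human primary T cells per well spent 1 h at 37 °C with test compound in Yssel's medium. The counter-screen replaced antibody stimulation with PMA (0.5 ng/ml final) and ionomycin (0.1 uM final).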
(In general: In an ELISA, binding on a coated surface is turned into a signal by an enzyme label.)

The compound `CC1(C)CC(Nc2nc(Nc3cc(O)cc(O)c3)ncc2F)CC(C)(C)N1` [Compound I-383] yielded an IC50 (24 hours) of 30000 nM. This counts as double-digit micromolar. As to `CC(C)n1c(=O)oc2cc(Nc3ncc(C#N)c(NC4CC(C)(C)NC(C)(C)C4)n3)ccc21` [II-162], where the note is “Homo sapiens, T-cell, 24 h”, the IC50 was 1130 nM. `CN1CCN(c2cc(Nc3ncc(F)c(NC4CC(C)(C)N(C)C(C)(C)C4)n3)ccc2Cl)CC1` [Compound I-65] yielded an IC50 (24 hours) of 1980 nM. Under “Homo sapiens, T-cell, 24 h”, `COC(=O)CCN1C(C)(C)CC(Nc2nc(Nc3cc(OC)cc(OC)c3)ncc2F)CC1(C)C` [Compound I-292] yielded a concentration for half-maximal inhibition (IC50) of 2480 nM. That is a single-digit micromolar value. In the case of `CCN1C(=O)C(C)(C)S(=O)(=O)c2cc(Nc3ncc(F)c(NC4CC(C)(C)N(C)C(C)(C)C4)n3)ccc21` [II-66], the IC50 (24 hours) was found to be 695 nM. This counts as sub-micromolar. Under “24 hours”, `CN1CCN(c2ccc(Nc3ncc(F)c(NC4CC(C)(C)N(C)C4(C)C)n3)cc2C(F)(F)F)CC1` (stereo not shown) [Compound I-285, 5-Fluoro-N2-[4-(4-methylpiperazin-1-yl)-3-(trifluoromethyl)]phenyl-N4-(1,2,2,5,5-pentamethylpyrrolidin-3-yl)-2,4-pyrimidinediamine] had an IC50 of 1230 nM. `CN1C(C)(C)CC(Nc2nc(Nc3nc(-c4ccc(N5CCCC5)cc4)cs3)ncc2F)CC1(C)C` [II-133] yielded an IC50 (Homo sapiens, T-cell, 24 h) of 2220 nM. `Cc1nccc(-c2cccc(Nc3ncc(F)c(NC4CC(C)(C)N(C)C(C)(C)C4)n3)c2)n1` [Compound I-69]: it took 2390 nM to reach half-maximal inhibition (24 hours) (IC50). Regarding `CN1C(C)(C)CC(Nc2nc(Nc3ccc(Cl)c(N4CCN(S(C)(=O)=O)CC4)c3)ncc2F)CC1(C)C` [Compound I-68], the IC50 (24 hours) was found to be 589 nM. `CCN(CC)C1CCC(Nc2nc(Nc3ccc(N4CCN(S(C)(=O)=O)CC4)c(C(F)(F)F)c3)ncc2F)CC1` (stereo not shown) [IV-9, N4-(4-Diethylamino)cyclohexyl-5-fluoro-N2-[4-(4-methylsulfonylpiperazino)-3-trifluoromethyl]phenyl-2,4-pyrimidinediamine]: under “Homo sapiens, T-cell, 24 h”, half-maximal inhibition (IC50) required 3450 nM. On to `CN1CCN(c2ccc(Nc3ncc([N+](=O)[O-])c(NC4CC(C)(C)N(C)C(C)(C)C4)n3)cc2Cl)CC1` [Compound I-76], for which the IC50 (24 hours) amounted to 596 nM.

For `CCOc1ccc(Nc2ncc(F)c(NC3CC(C)(C)N(C)C(C)(C)C3)n2)cc1-n1nnnc1CC` [Compound I-409], the IC50 (24 hours) turned out to be 50 nM. The compound `CN1C(C)(C)CC(Nc2nc(Nc3ccc(N4CCN(S(C)(=O)=O)CC4)c(C#N)c3)ncc2C#N)CC1(C)C` [Compound I-196] showed an IC50 (24 hours) of 971 nM. On the same count and under the same terms, the figure for `CCOC(=O)c1cnc(Nc2ccc(N3CCN(C)CC3)c(C(F)(F)F)c2)nc1NC1CC(C)(C)N(C)C(C)(C)C1` [Compound I-82] is 3210 nM. Same read-out and setting: the figure for `COc1ccc(Nc2ncc(F)c(NC3CC(C)(C)N(C)C(C)(C)C3)n2)cc1OCCN(C)C` [Compound I-421] is 4630 nM.

`CN1C(C)(C)CC(Nc2nc(Nc3nc(-c4ccc(NS(=O)(=O)c5ccc(Cl)cc5)cc4)cs3)ncc2F)CC1(C)C` [II-142]: half-maximal inhibition (Homo sapiens, T-cell, 24 h) (IC50) was put at 1030 nM. That is a single-digit micromolar value.

`COc1ccc(Nc2ncc(C(N)=O)c(NC3CC(C)(C)N(C)C(C)(C)C3)n2)cc1Cl` [Compound I-85] yielded an IC50 (24 hours) of 631 nM. Under “Homo sapiens, T-cell, 24 h”, `COc1ccc(Nc2ncc(F)c(N(Cc3ccc(-c4ccccc4)cc3)C3CC(C)(C)N(C)C(C)(C)C3)n2)cc1OC(F)F` [Compound I-319] gave an IC50 of 2850 nM. Same read-out and setting: the figure for `CCN(CC)C1CCC(Nc2nc(Nc3ccc(N4CCN(C)CC4)c(Cl)c3)ncc2F)CC1` (stereo not shown) [IV-8, N2-[3-Chloro-4-(4-methylpiperazino)]phenyl-N4-(4-diethylamino)cyclohexyl-5-fluoro-2,4-pyrimidinediamine] is 4410 nM. As for `CN1C(C)(C)CC(Nc2nc(Nc3cccc(OC(F)(F)F)c3)ncc2Br)CC1(C)C` [Compound I-275], inhibition (24 hours) was half-maximal at 617 nM (IC50). For the setting “24 hours”, `CN1C(C)(C)CC(Nc2nc(Nc3ccc(N4CCC(F)(F)CC4)c(Cl)c3)ncc2F)CC1(C)C` [Compound I-50] returned a half-inhibitory concentration (IC50) of 320 nM. In turn, `CN1C(C)(C)CC(Nc2nc(Nc3ccc(C(F)(F)F)c(C(F)(F)F)c3)ncc2F)CC1(C)C` [Compound I-410] returned an IC50 (24 hours) of 1440 nM. For `CN1C(C)(C)CC(Nc2nc(Nc3ccc(NC(=O)c4ccco4)c(Cl)c3)ncc2Cl)CC1(C)C` [Compound I-351], under “24 hours”, the IC50 was determined as 198 nM. Compared with the last compound, the IC50 is about 7.3-fold lower. As for `COCCOc1cc(Nc2ncc(F)c(NC3CC(C)(C)N(C)C(C)(C)C3)n2)cc(OCCOC)c1` [Compound I-385], the IC50 (24 hours) came out at 1180 nM. Same read-out and setting: the figure for `COc1ccc(Nc2ncc(F)c(N(C)C3CC(C)(C)N(C)C(C)(C)C3)n2)cc1Cl` [Compound I-58] is 2000 nM. As for `CN1C(C)(C)CC(Nc2nc(Nc3ccc4c(c3)oc(=O)n4CCN3CCOCC3)ncc2F)CC1(C)C` [II-167], the IC50 (Homo sapiens, T-cell, 24 h) came out at 2180 nM. With `CN1CCN(c2ccc(Nc3nccc(NC4CC(C)(C)N(C)C(C)(C)C4)n3)cc2C(F)(F)F)CC1` [Compound I-229], the IC50 (24 hours) turned out to be 585 nM. That is a sub-micromolar value. Compound `CN1C(C)(C)CC(Nc2nc(Nc3ccc4c(c3)CCC(=O)N4)ncc2F)CC1(C)C` [II-2] yielded an IC50 (24 hours) of 1400 nM. The same measure, in the same setting: the figure for `COc1ccc(Nc2ncc(F)c(NC3CC(C)(C)N(C)C(C)(C)C3)n2)cc1OC(C)C` [Compound I-360] is 2200 nM.

Turning to `Cc1cnc(Nc2ccc(S(N)(=O)=O)cc2)nc1NC1CC(C)(C)N(C)C(C)(C)C1` [Compound I-13], the IC50 (24 hours) is 7680 nM. This IC50 is about 3.5-fold higher than that of the compound before.

`CN1CCN(c2ccc(Nc3ncc([N+](=O)[O-])c(NC4CC(C)(C)N(C)C(C)(C)C4)n3)cc2C(F)(F)F)CC1` [Compound I-74] came in with an IC50 (24 hours) of 657 nM. Compared with the last compound, the IC50 is about 12-fold lower. `COc1ccc(Nc2ncc(F)c(NC3CCC(C)(C)N(C)C(C)(C)C3)n2)cc1Cl` (stereo not shown) [Compound I-262, 5-Fluoro-N2-[3-chloro-4-methoxy]phenyl-N4-(1,2,2,7,7-pentamethylazepan-4-yl)-2,4-pyrimidinediamine] came in with an IC50 (24 hours) of 14800 nM.

Where the note is “Homo sapiens, T-cell, 24 h”, `CN1C(C)(C)CC(Nc2nc(Nc3nc(-c4ccc(F)cc4F)cs3)ncc2F)CC1(C)C` [II-141] came in with an IC50 of 1000 nM. For `CN1C(=O)C(C)(C)S(=O)(=O)c2cc(Nc3ncc(F)c(NC4CC(C)(C)N(C)C(C)(C)C4)n3)ccc21` [II-64], for the setting “24 hours”, the IC50 came out at 849 nM. Regarding `Cc1ccc(Nc2ncc(C)c(NC3CC(C)(C)N(C)C(C)(C)C3)n2)cc1S(N)(=O)=O` [Compound I-15], the IC50 (24 hours) stood at 6850 nM. As for `CC(C)N1C(=O)C2(CCC2)Oc2cc(Nc3ncc(F)c(NC4CC(C)(C)N(C)C(C)(C)C4)n3)ccc21` [II-165], the IC50 (24 hours) came to 410 nM. Under “Homo sapiens, T-cell, 24 h”, `CN1C(C)(C)CC(Nc2nc(Nc3ccc(OC(F)(F)F)cc3)ncc2F)CC1(C)C` [Compound I-231] came in with an IC50 of 1750 nM. `COc1cc(Nc2ncc(F)c(NC3CC(C)(C)N(C)C(C)(C)C3)n2)cc(C(F)(F)F)c1` [Compound I-145] returned an IC50 (24 hours) of 897 nM.

`CN1C(C)(C)CC(Nc2nc(Nc3nc4ccc(S(C)(=O)=O)cc4s3)ncc2F)CC1(C)C` [II-144] gave an IC50 (Homo sapiens, T-cell, 24 h) of 1080 nM. Turning to `COc1ccc(Nc2ncc(F)c(NC3CC(C)(C)N(C)C(C)(C)C3)n2)cc1-c1cnco1` [Compound I-369], for the setting “24 hours”, half-maximal inhibition (IC50) required 624 nM.

Under “Homo sapiens, T-cell, 24 h”, `Cc1ccc(Nc2ncc(F)c(N(Cc3ccc4ccccc4n3)C3CC(C)(C)N(C)C(C)(C)C3)n2)cc1C#N` [Compound I-320] had an IC50 of 6140 nM. As to `CC1(C)CC(Nc2nc(Nc3ccc4c(c3)oc(=O)n4CCN3CCOCC3)ncc2C#N)CC(C)(C)N1` [II-170], where the note is “Homo sapiens, T-cell, 24 h”, the IC50 amounted to 15800 nM. This IC50 lies about 2.6-fold higher than the previous one. With `CN1C(C)(C)CC(Nc2nc(Nc3cc(OCC(F)(F)F)cc(OCC(F)(F)F)c3)ncc2C#N)CC1(C)C` [Compound I-411], the IC50 (24 hours) worked out at 280 nM. In turn, `CN1C(C)(C)CC(Nc2nc(Nc3ccc(N4CCN(S(C)(=O)=O)CC4)c(Cl)c3)ncc2C(N)=O)CC1(C)C` [Compound I-91] gave an IC50 (24 hours) of 3910 nM.

Regarding `CC(C)N1C(=O)C(C)(C)S(=O)(=O)c2cc(Nc3ncc(F)c(NC4CC(C)(C)N(C)C(C)(C)C4)n3)ccc21` [II-67], the IC50 (24 hours) came to 811 nM. This IC50 lies about 4.8-fold lower than the previous one. For `CN1C(C)(C)CC(Nc2nc(Nc3nc(-c4ccc(C(F)(F)F)cc4)cs3)ncc2F)CC1(C)C` [II-140], for the setting “Homo sapiens, T-cell, 24 h”, the IC50 was found to be 590 nM. `COc1ccc(Nc2ncc(F)c(NC3CC(C)(C)N(C)C(C)(C)C3)n2)cc1-c1cc2ccccc2s1` [Compound I-195] yielded an IC50 (24 hours) of 1120 nM. Regarding `CN1CCN(c2ccc(Nc3ncc(F)c(NC4CC(C)(C)NC(C)(C)C4)n3)cc2C(F)(F)F)CC1` [Compound I-255], under “24 hours”, the midpoint of inhibition, the IC50, lay at 236 nM.

Compound `CN1C(C)(C)CC(Nc2nc(Nc3ccc(Cl)c(Cl)c3)ncc2F)CC1(C)C` [Compound I-336] displayed an IC50 (24 hours) of 2040 nM. Where the note is “Homo sapiens, T-cell, 24 h”, `CN1C(C)(C)CC(Nc2nc(Nc3ccc4c(c3)oc(=O)n4C)ncc2F)CC1(C)C` [II-36] returned an IC50 of 678 nM. Turning to `CN1C(C)(C)CC(Nc2nc(Nc3cc(-c4cc5ccccc5s4)cc(C(F)(F)F)c3)ncc2F)CC1(C)C` [Compound I-205], the IC50 (24 hours) amounted to 965 nM. The compound `CN1C(C)(C)CC(Nc2nc(Nc3ccc(F)c(-c4cc5ccccc5s4)c3)ncc2F)CC1(C)C` [Compound I-181] yielded an IC50 (24 hours) of 1320 nM. This IC50 and that of the compound before are within 1.5-fold of each other. Still for that read-out and setting: the figure for `CN1C(C)(C)CC(Nc2nc(Nc3ccc(OC(F)(F)F)c(-c4ccoc4)c3)ncc2F)CC1(C)C` [Compound I-209] is 706 nM.

On to `CN1C(C)(C)CC(Nc2ccnc(Nc3cccc(C#N)c3)n2)CC1(C)C` [Compound I-227], for which half-maximal inhibition (Homo sapiens, T-cell, 24 h) (IC50) was put at 806 nM.

`CN1C(C)(C)CC(Nc2nc(Nc3ccc(-c4cnn(C)c4)cc3)ncc2F)CC1(C)C` [Compound I-144] gave an IC50 (24 hours) of 1060 nM.

Consider `CN1C(C)(C)CC(Nc2ccnc(Nc3ccc(N4CCN(S(C)(=O)=O)CC4)c(C(F)(F)F)c3)n2)CC1(C)C` [Compound I-228], for which it took 720 nM to reach half-maximal inhibition (24 hours) (IC50). For `CN1C(=O)CCc2cc(Nc3ncc(F)c(NC4CC(C)(C)N(C)C(C)(C)C4)n3)ccc21` [II-4], the IC50 (Homo sapiens, T-cell, 24 h) was 1720 nM. Same read-out and setting: the figure for `CC(C)N1C(=O)COc2cc(Nc3ncc(F)c(NC4CC(C)(C)N(C)C(C)(C)C4)n3)ccc21` [II-61] is 168 nM; for `CCN1C(=O)COc2cc(Nc3ncc(F)c(NC4CC(C)(C)N(C)C(C)(C)C4)n3)ccc21` [II-58] it is 231 nM. Turning to `Cc1ccc(Nc2ncc(Br)c(NC3CC(C)(C)N(C)C(C)(C)C3)n2)cc1C#N` [Compound I-277], it took 206 nM to reach half-maximal inhibition (24 hours) (IC50).

In turn, `CN1C(C)(C)CC(Nc2nc(Nc3cccc(OC(F)(F)F)c3)ncc2C(F)(F)F)CC1(C)C` [Compound I-242] yielded an IC50 (Homo sapiens, T-cell, 24 h) of 8190 nM.
